Results: patent publication US20220265817A1, “THERAPEUTIC COMPOSITIONS AND METHODS FOR TREATING HEPATITIS B” (priority 2017, published 2022)
Like-named read-outs stand apart in the source and are kept apart here.

Columns and labels:
[1] = tested on: HBV rcDNA in AML12-HBV10 cells; assay: AML12-HBV10 cell culture system, rcDNA quantitation using bDNA assay, MacSynergy II; format: cell-based, mouse hepatocyte cell line; conditions: for EC50: rcDNA, AML12-HBV10 cells, 48 hrs, read-out: Inhibitor EC50; for inhibition at 0.01 µM: Compound 3 0.010 μM; for inhibition at 0.02 µM: Compound 3 0.020 μM; for inhibition at 0.039 µM: Compound 3 0.039 μM; for inhibition at 0.078 µM: Compound 3 0.078 μM; for inhibition at 0.313 µM: Compound 3 0.313 μM; for inhibition at 0.625 µM: Compound 3 0.625 μM; for inhibition at 1.25 µM: Compound 3 1.250 μM
Description: In vitro combination studies were conducted using the method of Prichard and Shipman (Prichard M N, and Shipman C Jr., Antiviral Research, 1990, 14 (4-5), 181-205; and Prichard M N, et. al., MacSynergy II). The AML12-HBV10 cell line was developed as described in Campagna et al. (Campagna et. al., J. Virology, 2013, 87(12), 6931-6942). It is a mouse hepatocyte cell line stably transfected with the HBV genome, and which can express HBV pregenomic RNA and support HBV rcDNA (relaxed circular DNA) synthesis in a tetracycline-regulated manner. AML12-HBV10 cells were plated in 96 well tissue-culture treated microtiter plates in DMEM/F12 medium supplemented with 10% fetal bovine serum +1% penicillin-streptomycin without tetracycline and incubated in a humidified incubator at 37° C. and 5% CO2 overnight. […] The two inhibitors were tested both singly as well as in combinations in a checkerboard fashion such that each concentration of inhibitor A was combined with each concentration of inhibitor B to determine their combination effects on inhibition of rcDNA production. Following a 48 hour-incubation, the level of rcDNA present in the inhibitor-treated wells was measured using a bDNA assay (Affymetrix) with HBV specific custom probe set and manufacturer's instructions. […] Concurrently, the effect of inhibitor combinations on cell viability was assessed using replicate plates that were used to determine the ATP content as a measure of cell viability using the cell-titer glo reagent (Promega) as per manufacturer's instructions.

[2] = tested on: D type HBV in primary human hepatocytes; assay: microbe, parasite or virus in culture; format: cell-based; conditions: Hepatitis B virus, Hepatocyte
Method in brief: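 Supernatants collected on day 8 were assayed for HBV DNA by qPCR after compound exposure beginning day 2, with media and compound replaced every second day, in hepatocytes infected on day 1 with D type HBV. Dose-response: 7 points, 3-fold steps, triplicate; pairwise combinations tested as 5×5 matrix, synergy by MacSynergy.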

hepatitis B virus (HBV) = assay: Humanized liver chimeric mouse model of chronic HBV infection, serum HBsAg by EIA; format: in vivo; conditions: mean ± SEM
Description: This work was conducted in a well-established humanized liver chimeric mouse model of chronic hepatitis B virus (HBV) infection (Tsuge et al., Hepatology, 42(5), 1046-54 (2005)). A persistent level of HBV infection was established in the animals prior to the treatment phase which started at Day 0.
The anti-HBV effects were assessed based on serum HBsAg levels using the GS HBsAg EIA 3.0 enzyme linked immunosorbent assay kit from Bio-Rad Laboratories as per manufacturer instructions; and serum HBV DNA levels measured from total extracted DNA using a quantitative PCR assay (primer/probe sequences from Tanaka et al., Journal of Medical Virology, 72, 223-229 (2004)).

[3] = Hepatitis B virus, AML12HBV10, in Mus musculus, ETV μM: 0.075, 0.025, 0.008, 0.003, 0.001, 0
[4] = Hepatitis B virus, AML12HBV10, in Mus musculus, SIRNA-NP μg/mL: 0.5, 0.167, 0.056, 0.019, 0.006, 0

## CC[C@@H](C)NS(=O)(=O)c1ccc(F)c(C(=O)Nc2ccc(F)c(F)c2)c1 [Compound 3]
[1]; Hepatitis B virus, AML12HBV10, in Mus musculus, 48 h
  EC50: 250 nM
[1]; [3]
  inhibition at 0.01 µM: -3.19%
  inhibition at 0.02 µM: 0.62%
  inhibition at 0.039 µM: 7.38%
  inhibition at 0.078 µM: -1.81%
  inhibition at 0.313 µM: 71%
  inhibition at 0.625 µM: 80.8%
  inhibition at 1.25 µM: 86.7%
[1]; [4]
  inhibition at 0.01 µM: -1.98%
  inhibition at 0.02 µM: -20.5%
  inhibition at 0.039 µM: -16.9%
  inhibition at 0.078 µM: 20.1%
  inhibition at 0.313 µM: 59.4%
  inhibition at 0.625 µM: 79.9%
  inhibition at 1.25 µM: 88.1%
[1]; Hepatitis B virus, AML12HBV10, in Mus musculus, Compound 3 2.500 μM, ETV μM: 0.075, 0.025, 0.008, 0.003, 0.001, 0
  inhibition at 2.5 µM: 90.5%
[1]; Hepatitis B virus, AML12HBV10, in Mus musculus, Compound 3 2.5 μM, SIRNA-NP μg/mL: 0.5, 0.167, 0.056, 0.019, 0.006, 0
  inhibition at 2.5 µM: 89.7%
[1]
  EC50: 231 nM
[2]; 456 h, HBV DNA endpoint, PHH, determined in an earlier separate experiment (Table 19d), read-out: Inhibitor B EC50
  EC50: 876 nM
[2]; 576 h, PHH, determined in an earlier separate experiment (Table 24d), read-out: Inhibitor B EC50 HBV DNA
  EC50: 876 nM
[2]; read-out: AVERAGE % […] DNA, COMPOUND 3 61.73 nM alone (Table 19a)
  inhibition at 0.06173 µM: -28.1%
[2]; read-out: AVERAGE % […] DNA, COMPOUND 3 68.64 nM alone (Table 20a)
  inhibition at 0.06864 µM: -2.79%
[2]; read-out: AVERAGE % […] DNA, COMPOUND 3 185.19 nM alone (Table 19a), read-out: AVERAGE % INHIBITION HBV DNA
  inhibition at 0.18519 µM: -25.9%
[2]; read-out: AVERAGE % […] DNA, COMPOUND 3 205.93 nM alone (Table 20a)
  inhibition at 0.20593 µM: -5.02%
[2]; read-out: AVERAGE % […] DNA, COMPOUND 3 555.56 nM alone (Table 19a), read-out: AVERAGE % INHIBITION HBV DNA
  inhibition at 0.55556 µM: -3.32%
[2]; read-out: AVERAGE % […] DNA, COMPOUND 3 617.78 nM alone (Table 20a)
  inhibition at 0.61778 µM: 34.8%
[2]; read-out: AVERAGE % […] DNA, COMPOUND 3 1666.67 nM alone (Table 19a)
  inhibition at 1.66667 µM: 25.9%
[2]; read-out: AVERAGE % […] DNA, COMPOUND 3 1853.33 nM alone (Table 20a)
  inhibition at 1.85333 µM: 66.4%
[2]; read-out: AVERAGE % […] DNA, COMPOUND 3 5000.00 nM alone (Table 19a), read-out: AVERAGE % INHIBITION HBV DNA
  inhibition at 5 µM: 74.8%
[2]; read-out: AVERAGE % […] DNA, COMPOUND 3 5560.00 nM alone (Table 20a)
  inhibition at 5.56 µM: 85.3%
[2]; read-out: AVERAGE % […] DNA, COMPOUND 3 61.73 μM alone
  inhibition at 61.73 µM: -11.7%
[2]; read-out: AVERAGE % […] DNA, COMPOUND 3 185.19 μM alone
  inhibition at 185.19 µM: 4.14%
[2]; read-out: AVERAGE % […] DNA, COMPOUND 3 555.56 μM alone
  inhibition at 555.56 µM: 26.5%
[2]; read-out: AVERAGE % […] DNA, COMPOUND 3 1666.67 μM alone
  inhibition at 1666.67 µM: 69.4%
[2]; read-out: AVERAGE % […] DNA, COMPOUND 3 5000.00 μM alone
  inhibition at 5000 µM: 84.3%
[2]; HBV DNA, determined in an earlier separate experiment, read-out: Inhibitor EC50
  EC50: 876 nM
Hepatitis B virus (HBV); Day 0 (start of treatment)
  Serum HBsAg: 2965 ± 616 IU/mL
Hepatitis B virus (HBV); Day 21, Compound 3 oral 100 mg/kg twice daily, SIRNA-NP iv 3 mg/kg every 2 weeks, ETV oral 1.2 μg/kg daily, pegIFN α-2a sc 30 μg/kg twice a week
  Serum HBsAg: 4158 ± 355 IU/mL
